Results published in publication PMC6749389, “Synthesis and In Vitro Anti-Toxoplasma gondii Activity of Novel Thiazolidin-4-one Derivatives” (Molecules, 2019).

Columns and labels:
[1] = Cytotoxic assay (MTT, ISO 10993-5:2009(E)), 24 h treatment; type: cell-based; conditions: L929 mouse fibroblast cells, L929 mouse fibroblasts, values above highest tested concentration extrapolated
Experimental: The L929 mouse fibroblast (ATTC® CCL-1™, Manassas, VA, USA) were culturing according to the ATCC product sheet. […] The cell viability assay were performed precisely according to international standards (ISO 10993-5:2009(E)), using the tetrazolium salt [3-(4,5-dimethylthiazol-2-yl)-2,5-diphenyltetrazolium bromide] (MTT, Sigma-Aldrich) and mouse fibroblasts L929 cells. Cells (1 × 10^4 per well) were treated 24 h with compounds or drug in different concentration range. The optical density at 570 nm on the ELISA reader (Multiskan EX, Labsystems, Vienna, VA, USA), was read. The results were expressed as a percentage of viability compared to untreated cells. […] The CC30/CC50 represents the concentration of tested compounds or drugs that was required for 30% or 50% cells proliferation inhibition in vitro. According to the previously mentioned ISO 10993-5:2009(E) norm, the CC30 value is recognized as non-cytotoxic concentration for the cell line. All experiments were performed in triplicate.

[2] = test system: T. gondii tachyzoites (RH strain); test: In vitro anti-T. gondii activity, [3H]-uracil incorporation assay in infected Hs27 cells; type: cell-based, Toxoplasma gondii; conditions: for IC50: Toxoplasma gondii, T. gondii RH tachyzoites proliferation in Hs27 cells, na = not active in the tested concentration range; for SR (selectivity ratio): ratio of CC50 (L929) to IC50 (T. gondii); for inhibition of proliferation, fold better (lower IC50) than sulfadiazine: relative to sulfadiazine; for inhibition of proliferation, fold better than sulfadiazine + trimethoprim (5:1): relative to sulfadiazine + trimethoprim (5:1)

Row | SMILES | melting point | CC50 at 24 h [1] | IC50 [2] | SR (selectivity ratio) [2] | inhibition of proliferation, fold better (lower IC50) than sulfadiazine [2] | inhibition of proliferation, fold better than sulfadiazine + trimethoprim (5:1) [2]
1 | COC(=O)C=C1SC(=NN=Cc2ccccc2O)N(c2ccccc2)C1=O [Compound 89, Methyl [2-{[(2-hydroxyphenyl)methylidene]hydrazinylidene}-4-oxo-3-phenyl-1,3-thiazolidin-5-ylidene]acetate] | 242 to 244 °C | 304 µM | – | – | – | –
2 | COC(=O)C=C1SC(=NN=Cc2cccc(O)c2)N(c2ccccc2)C1=O [Compound 90, Methyl [2-{[(3-hydroxyphenyl)methylidene]hydrazinylidene}-4-oxo-3-phenyl-1,3-thiazolidin-5-ylidene]acetate] | 236 to 238 °C | 234 µM | – | – | – | –
3 | COC(=O)C=C1SC(=NN=Cc2ccc(O)cc2)N(c2ccccc2)C1=O [Compound 91, Methyl [2-{[(4-hydroxyphenyl)methylidene]hydrazinylidene}-4-oxo-3-phenyl-1,3-thiazolidin-5-ylidene]acetate] | 222 to 224 °C | 493 µM | 92.9 µM | 5.31 | – | –
4 | COC(=O)C=C1SC(=NN=Cc2ccc(O)c(OC)c2)N(c2ccccc2)C1=O [Compound 92, Methyl [2-{[(4-hydroxy-3-methoxyphenyl)methylidene]hydrazinylidene}-4-oxo-3-phenyl-1,3-thiazolidin-5-ylidene]acetate] | 210 to 212 °C | 486 µM | 180 µM | 2.69 | – | –
5 | CCOc1cc(C=NN=C2SC(=CC(=O)OC)C(=O)N2c2ccccc2)ccc1O [Compound 93, Methyl [2-{[(3-ethoxy-4-hydroxyphenyl)methylidene]hydrazinylidene}-4-oxo-3-phenyl-1,3-thiazolidin-5-ylidene]acetate] | 190 to 192 °C | 463 µM | 191 µM | 2.42 | – | –
6 | COC(=O)C=C1SC(=NN=Cc2ccc(O)c(Cl)c2)N(c2ccccc2)C1=O [Compound 94, Methyl [2-{[(3-chloro-4-hydroxyphenyl)methylidene]hydrazinylidene}-4-oxo-3-phenyl-1,3-thiazolidin-5-ylidene]acetate] | 238 to 240 °C | 474 µM | 27.7 µM | 17.07 | – | 18 fold
7 | COC(=O)C=C1SC(=NN=Cc2ccc(O)c(Br)c2)N(c2ccccc2)C1=O [Compound 95, Methyl [2-{[(3-bromo-4-hydroxyphenyl)methylidene]hydrazinylidene}-4-oxo-3-phenyl-1,3-thiazolidin-5-ylidene]acetate] | 236 to 238 °C | 428 µM | 28.3 µM | 15.11 | – | 18 fold
8 | COC(=O)C=C1SC(=NN=Cc2ccc(O)cc2)N(c2ccc(Cl)cc2)C1=O [Compound 99, Methyl [3-(4-chlorophenyl)-2-{[(4-hydroxyphenyl)methylidene]hydrazinylidene}-4-oxo-1,3-thiazolidin-5-ylidene]acetate] | 250 to 251 °C | 230 µM | – | – | – | –
9 | Nc1ccc(S(=O)(=O)Nc2ncccn2)cc1 [Sulfadiazine, 4-amino-N-(2-pyrimidinyl)benzenesulfonamide, reference compound] | – | ≥ 10000 µM | 10900 µM | ≥0.92 | – | –

Now from value to molecule, other results behind:

Row | melting point | SMILES | CC50 at 24 h [1] | IC50 [2] | SR (selectivity ratio) [2] | inhibition of proliferation, fold better (lower IC50) than sulfadiazine [2] | inhibition of proliferation, fold better than sulfadiazine + trimethoprim (5:1) [2]
10 | 224 to 226 °C | CCOc1cc(C=NN=C2SC(CC(=O)O)C(=O)N2c2ccccc2)ccc1O (stereo not drawn) [Compound 78, [2-{[(3-Ethoxy-4-hydroxyphenyl)methylidene]hydrazinylidene}-4-oxo-3-phenyl-1,3-thiazolidin-5-yl]acetic acid] | ≥ 1000 µM | – | – | – | –
11 | 244 to 246 °C | O=C(O)CC1SC(=NN=Cc2ccc(O)c(Cl)c2)N(c2ccccc2)C1=O (stereo not drawn) [Compound 79, [2-{[(3-Chloro-4-hydroxyphenyl)methylidene]hydrazinylidene}-4-oxo-3-phenyl-1,3-thiazolidin-5-yl]acetic acid] | ≥ 1000 µM | – | – | – | –
12 | 252 to 254 °C | O=C(O)CC1SC(=NN=Cc2ccc(O)c(Br)c2)N(c2ccccc2)C1=O (stereo not drawn) [Compound 80, [2-{[(3-Bromo-4-hydroxyphenyl)methylidene]hydrazinylidene}-4-oxo-3-phenyl-1,3-thiazolidin-5-yl]acetic acid] | ≥ 1000 µM | – | – | – | –
13 | 226 to 228 °C | O=C(O)CC1SC(=NN=Cc2cccc(O)c2)N(c2ccc(Cl)cc2)C1=O (stereo not drawn) [Compound 82, [3-(4-Chlorophenyl)-2-{[(3-hydroxyphenyl)methylidene]hydrazinylidene}-4-oxo-1,3-thiazolidin-5-yl]acetic acid] | 656 µM | 263 µM | 2.49 | – | –
14 | 234 to 235 °C | O=C(O)CC1SC(=NN=Cc2ccc(O)cc2)N(c2ccc(Cl)cc2)C1=O (stereo not drawn) [Compound 83, [3-(4-Chlorophenyl)-2-{[(4-hydroxyphenyl)methylidene]hydrazinylidene}-4-oxo-1,3-thiazolidin-5-yl]acetic acid] | 906 µM | 271 µM | 3.34 | – | –
15 | 254 to 256 °C | COc1cc(C=NN=C2SC(CC(=O)O)C(=O)N2c2ccc(Cl)cc2)ccc1O (stereo not drawn) [Compound 84, [3-(4-Chlorophenyl)-2-{[(4-hydroxy-3-methoxyphenyl)methylidene]hydrazinylidene}-4-oxo-1,3-thiazolidin-5-yl]acetic acid] | 827 µM | 220 µM | 3.76 | – | –
16 | 224 to 226 °C | CCOc1cc(C=NN=C2SC(CC(=O)O)C(=O)N2c2ccc(Cl)cc2)ccc1O (stereo not drawn) [Compound 85] | 759 µM | 165 µM | 4.59 | – | –
17 | 256 to 257 °C | O=C(O)CC1SC(=NN=Cc2ccc(O)c(Cl)c2)N(c2ccc(Cl)cc2)C1=O (stereo not drawn) [Compound 86, [2-{[(3-Chloro-4-hydroxyphenyl)methylidene]hydrazinylidene}-3-(4-chlorophenyl)-4-oxo-1,3-thiazolidin-5-yl]acetic acid] | ≥ 1000 µM | 178 µM | ≥5.63 | – | –
18 | 254 to 255 °C | O=C(O)CC1SC(=NN=Cc2ccc(O)c(Br)c2)N(c2ccc(Cl)cc2)C1=O (stereo not drawn) [Compound 87, [2-{[(3-Bromo-4-hydroxyphenyl)methylidene]hydrazinylidene}-3-(4-chlorophenyl)-4-oxo-1,3-thiazolidin-5-yl]acetic acid] | 425 µM | 116 µM | 3.66 | about 90 fold | –
19 | 226 to 228 °C | COc1cc(C=NN=C2SC(CC(=O)O)C(=O)N2c2ccc(Cl)cc2Cl)ccc1O (stereo not drawn) [Compound 88, [3-(2,4-Dichlorophenyl)-2-{[(4-hydroxy-3-methoxyphenyl)methylidene]hydrazinylidene}-4-oxo-1,3-thiazolidin-5-yl]acetic acid] | 566 µM | 129 µM | 4.37 | about 90 fold | –
20 | 222 to 224 °C | COC(=O)C=C1SC(=NN=Cc2cccc(O)c2)N(c2ccc(Cl)cc2)C1=O [Compound 98, Methyl [3-(4-chlorophenyl)-2-{[(3-hydroxyphenyl)methylidene]hydrazinylidene}-4-oxo-1,3-thiazolidin-5-ylidene]acetate] | 167 µM | – | – | – | –
